Patent US10759816B2, “Heterocyclic compounds as RSV inhibitors” (Enanta Pharmaceuticals, Inc., priority 2016, dated 2020)

tested on: genotype A, "Long" strain RSV; experiment: RSV-A in vitro cytoprotection assay in HEp-2 cells (ATPlite readout of cell viability); type: cell-based, Human respiratory syncytial virus; details: human respiratory syncytial virus, HEp-2, HEp-2 cells, genotype A “Long” strain RSV, cytoprotection; read-out: Human RSV-A (“Long” strain) EC50
Source text: RSV is a single stranded negative sense RNA virus that causes respiratory tract infections which can be dangerous to infants, the elderly, and immunosuppressed individuals. Currently there is no vaccine, and therapeutic options are both costly and of limited effectiveness. These approved treatments are Ribavirin, and Palivizumab/Synagis (a monoclonal antibody). RSV has two genotypes, A and B, which differ primarily in the structure of the virus' surface “G” attachment protein. Our current primary screen focuses on RSV-A and uses an in vitro cytoprotection assay where compounds are added in 2-fold dilutions to cells which are then subjected to fully replicative viral particles. Cell viability is measured several days later along with separate measurements of compound cytotoxicity. This report focuses on the results of our most recent screening of compounds.
HEp-2 cells, (originally derived from tumors grown in irradiated-cortisonised weanling rats that had been injected with epidermoid carcinoma tissue from a person's larynx, but later found to be indistinguishable from HeLa cells by PCR DNA analysis), were used for the culturing of genotype A, “Long” strain RSV. Flasks were inoculated with RSV and viral stocks were collected once cytopathic effect (CPE) was greater than 90%. Viral stocks in 25% sucrose media were snap frozen using liquid nitrogen to increase viral stability. Viral stock titers were quantified by tissue culture infectious dose 50% (TCID50) using 8,000 cells per well and 3-fold viral dilutions across a 96-well plate, cultured for 4 days.
Following extensive parameter testing, the final assay is run as follows: HEp-2 cells are seeded into the inner 60 wells of a 96-well plate at 8,000 cells per well in a volume of 50 μL using Growth Media (DMEM without phenol red, 1% L-Glut, 1% Penn/Strep, 1% nonessential amino acids, 10% FBS). 2-Fold serial dilutions of control and test compounds are added to the wells in duplicate in a total volume of 25 μL. Viral stock is then added to the wells in a volume of 25 μL, bringing the total volume of each well to 100 μL. Each 96-well plate has a control column of 6 wells with cells and virus but no compound (negative control, max CPE), a column with cells but no compound or virus (positive control, minimum CPE), and a column with no cells or virus or compound (background plate/reagent control). The control wells with cells but no virus are given an additional 25 uL of growth media containing an equal quantity of sucrose as those wells receiving the viral stock in order to keep consistent in media and volume conditions. The outer wells of the plate are filled with 125 μL of growth media to act as a thermal and evaporative moat around the test wells. Following a 4-day incubation period, the plates are read using ATPlite (50 uL added per well), which quantifies the amount of ATP (a measure of cell health) present in each well. Assay plates are read using the Envision luminometer. In parallel, cytotoxicity is examined on an additional 96-well plate treated in an identical manner, but substituting the 25 μL of viral stock for 25 μL of growth media. […] EC50 ranges are as follows: A <0.4 μM; B 0.4-0.8 μM; C >0.8 μM.

Going from `Cc1cccc(F)c1NC(=O)c1cc2c(s1)-c1ccccc1N(C(=O)c1cccc(-c3cnoc3C)n1)CC2` [Example 262] to `Cc1cccc(F)c1NC(=O)c1cc2c(s1)-c1ccccc1N(C(=O)c1cccc(-c3c(C)n[nH]c3C)n1)CC2` [Example 209], the EC50 falls from > 800 nM to < 400 nM.

`Cc1cccc(F)c1NC(=O)c1cc2c(s1)-c1ccccc1N(C(=O)c1cccc(N3CCC[C@H]3c3ccccn3)n1)CC2` [Example 485] and `Cc1cccc(F)c1NC(=O)c1cc2c(s1)-c1ccccc1N(C(=O)c1cccc(N3CCC[C@@H]3C(C)C)n1)CC2` [Example 482] cannot be ordered by EC50: > 800 nM for the first, > 800 nM for the second.

`Cc1cccc(F)c1NC(=O)c1cc2c(s1)-c1ccccc1N(C(=O)c1cccc(N3CCCN(S(=O)(=O)C4CCCCC4)CC3)n1)CC2` [Example 385] and `Cc1cccc(F)c1NC(=O)c1cc2c(s1)-c1ccccc1N(C(=O)c1cccc(N3CCCOCC3)n1)CC2` [Example 323] cannot be ordered by EC50: < 400 nM for the first, < 400 nM for the second.

`CC(=O)N1CCC(c2cccc(C(=O)N3CCc4cc(C(=O)NC5CC5)sc4-c4ccccc43)n2)CC1` [Example 58] and `O=C(NC1CC1)c1cc2c(s1)-c1ccccc1N(C(=O)c1cccc(N3CCC4(CC3)COC4)n1)CC2` [Example 18] fall in the same range of EC50: 400 to 800 nM for the first, 400 to 800 nM for the second.

`O=C(NC1CC1)c1cc2c(s1)-c1ccccc1N(C(=O)c1cccc(N3CCOCc4ccccc43)n1)CC2` [Example 320] and `O=C(NC1CC1)c1cc2c(s1)-c1ccccc1N(C(=O)c1cccc(-c3cccc(N4CCOCC4)c3)n1)CC2` [Example 67] cannot be ordered by EC50: > 800 nM for the first, > 800 nM for the second.

`O=C(NC1CC1)c1cc2c(s1)-c1ccccc1N(C(=O)c1ccc3c(c1)ncn3C1CCOCC1)CC2` [Example 14] and `O=C(NC1CC1)c1cc2c(s1)-c1ccccc1N(C(=O)c1ccc3nc(N4CCOCC4)oc3c1)CC2` [Example 10] cannot be ordered by EC50: > 800 nM for the first, > 800 nM for the second.

First: COc1ccc2c(c1)OCCN(c1cccc(C(=O)N3CCc4cc(C(=O)NC5CC5)sc4-c4ccccc43)n1)C2 [Example 282]
Second: O=C(Nc1cc2c(s1)-c1ccccc1N(C(=O)c1cccc(N3CCOc4ccccc4C3)n1)CC2)C1CC1 [Example 314]
The EC50 of the first is lower: < 400 nM for the first, > 800 nM for the second. The first is the more potent here.

`COCCN(c1cccc(C(=O)N2CCc3cc(C(=O)Nc4c(C)cccc4F)sc3-c3ccccc32)n1)C1CC1` [Example 471] and `COCCN(c1cccc(C(=O)N2CCc3cc(C(=O)Nc4c(C)cccc4F)sc3-c3ccccc32)n1)C1CCC1` [Example 328] cannot be ordered by EC50: < 400 nM for the first, < 400 nM for the second.

First: Cc1cccc(F)c1NS(=O)(=O)c1cc2c(s1)-c1ccccc1N(C(=O)c1cccc(N3CCCOCC3)n1)CC2 [Example 317]
Second: Cc1cccc(F)c1NC(=O)c1cc2c(s1)-c1ccccc1N(C(=O)c1cccc(N3CCCC(F)(F)CC3)n1)CC2 [Example 403]
The EC50 of the first is higher: > 800 nM for the first, < 400 nM for the second. The second is the more potent here.

Compared with `COc1cccc2c1ccn2-c1cccc(C(=O)N2CCc3cc(C(=O)Nc4c(C)cccc4F)sc3-c3ccccc32)n1` [Example 119], `Cc1cccc(F)c1NC(=O)c1cc2c(s1)-c1ccccc1N(C(=O)c1cccc(-c3cn(C)c4ccccc34)n1)CC2` [Example 208] is higher in EC50: 400 to 800 nM for the first, > 800 nM for the second. The first is the more potent here.

Going from `O=C(NC1CC1)c1cc2c(s1)-c1ccccc1N(S(=O)(=O)c1cccc(N3CCCOCC3)n1)CC2` [Example 102] to `O=C(NC1CC1)c1cc2c(s1)-c1ccccc1N(C(=O)c1ccc(F)c(N3CCCOCC3)n1)CC2` [Example 45], the EC50 falls from > 800 nM to < 400 nM. The second is the more potent here.

Compared with `Cc1cccc(F)c1NC(=O)c1cc2c(s1)-c1ccccc1N(C(=O)c1cccc(N(C)Cc3ccc4ccccc4c3)n1)CC2` [Example 354], `COc1cccc(CN(C)c2cccc(C(=O)N3CCc4cc(C(=O)Nc5c(C)cccc5F)sc4-c4ccccc43)n2)c1` [Example 343] is lower in EC50: > 800 nM for the first, < 400 nM for the second. The second is the more potent here.

`Cn1cc(-c2cccc(C(=O)N3CCc4cc(C(=O)NC5CC5)sc4-c4ccccc43)n2)ccc1=O` [Example 151] and `Cc1cncc(-c2cccc(C(=O)N3CCc4cc(C(=O)NC5CC5)sc4-c4ccccc43)n2)c1` [Example 155] cannot be ordered by EC50: > 800 nM for the first, > 800 nM for the second.

`CC(=O)NCCN(C)c1cccc(C(=O)N2CCc3cc(C(=O)Nc4c(C)cccc4F)sc3-c3ccccc32)n1` [Example 372] and `Cc1cccc(F)c1NC(=O)c1cc2c(s1)-c1ccccc1N(C(=O)c1cccc(N(C)CCN)n1)CC2` [Example 371] fall in the same range of EC50: 400 to 800 nM for the first, 400 to 800 nM for the second.

Going from `Cc1cccc(F)c1NC(=O)c1cc2c(s1)-c1c(F)cccc1N(C(=O)c1cccc(N3CCOc4ccccc4C3)n1)CC2` [Example 489] to `O=C(Nc1ccc[nH]c1=O)c1cc2c(s1)-c1ccccc1N(C(=O)c1cccc(N3CCOc4ccccc4C3)n1)CC2` [Example 303], the EC50 rises from < 400 nM to > 800 nM.

`Cc1cccc(F)c1NC(=O)c1cc2c(s1)-c1ccccc1N(C(=O)c1cccc(-c3cnc(C)n3C3CC3)n1)CC2` [Example 198] and `Cc1cccc(F)c1NC(=O)c1cc2c(s1)-c1ccccc1N(C(=O)c1cccc(N3C[C@@H](O)C[C@@H]3C)n1)CC2` [Example 495] cannot be ordered by EC50: < 400 nM for the first, < 400 nM for the second.

First: CNC(=O)c1cc2c(s1)-c1ccccc1N(C(=O)c1cccc(-c3ccc(OC)nc3)n1)CC2 [Example 94]
Second: COc1ncc(-c2cccc(C(=O)N3CCc4cc(C(=O)NC5CC5)sc4-c4ccccc43)n2)cc1C [Example 163]
The EC50 of the first is higher: > 800 nM for the first, < 400 nM for the second. The second is the more potent here.

`CCS(=O)(=O)CCN(C)c1cccc(C(=O)N2CCc3cc(C(=O)Nc4c(C)cccc4F)sc3-c3ccccc32)n1` [Example 325] and `Cc1cccc(F)c1NC(=O)c1cc2c(s1)-c1ccccc1N(C(=O)c1cccc(N(C)CCS(C)(=O)=O)n1)CC2` [Example 333] cannot be ordered by EC50: < 400 nM for the first, < 400 nM for the second.

`CN(C)c1cc(-c2cccc(C(=O)N3CCc4cc(C(=O)NC5CC5)sc4-c4ccccc43)n2)ccn1` [Example 84] and `O=C(NC1CC1)c1cc2c(s1)-c1ccccc1N(C(=O)c1cccc(-c3ccc(N4CCOCC4)cc3)n1)CC2` [Example 66] fall in the same range of EC50: 400 to 800 nM for the first, 400 to 800 nM for the second.

`O=C(NC1CC1)c1cc2c(s1)-c1ccccc1N(C(=O)c1ccc(CC(=O)N3CCOCC3)cc1)CC2` [Example 8] and `O=C(NC1CC1)c1cc2c(s1)-c1ccccc1N(C(=O)c1cccc(CN3CCOCC3)c1)CC2` [Example 2] cannot be ordered by EC50: > 800 nM for the first, > 800 nM for the second.

`CC(C)n1nccc1-c1cccc(C(=O)N2CCc3cc(C(=O)Nc4ccccc4N)sc3-c3ccccc32)n1` [Example 241] and `Cc1cccc(F)c1NC(=O)c1cc2c(s1)-c1ccccc1N(C(=O)c1cccc(N(C)Cc3ccncc3)n1)CC2` [Example 339] cannot be ordered by EC50: < 400 nM for the first, < 400 nM for the second.

First: CNC(=O)c1cc2c(s1)-c1ccccc1N(C(=O)c1cccc(N3CCCOCC3)n1)CC2 [Example 98]
Second: O=C(NC1CC1)c1cc2c(s1)-c1ccccc1N(C(=O)c1ccc(Cl)c(N3CCCOCC3)n1)CC2 [Example 43]
The EC50 of the first is lower: < 400 nM for the first, 400 to 800 nM for the second. The first is the more potent here.

`Cc1cccc(F)c1NC(=O)c1cc2c(s1)-c1ccccc1N(C(=O)c1cccc(N[C@@H]3CCOC3)n1)CC2` [Example 456] and `Cc1cccc(F)c1NC(=O)c1cc2c(s1)-c1ccccc1N(C(=O)c1cccc(N[C@H]3CCOC3)n1)CC2` [Example 457] cannot be ordered by EC50: < 400 nM for the first, < 400 nM for the second.

Compared with `Cc1cccc(F)c1NC(=O)c1cc2c(s1)-c1ccccc1N(C(=O)c1cccc(N3C(=O)OC[C@@H]3C(C)C)n1)CC2` [Example 475], `COC[C@H]1CCCN1c1cccc(C(=O)N2CCc3cc(C(=O)Nc4c(C)cccc4F)sc3-c3ccc(C4CC4)cc32)n1` [Example 500] is higher in EC50: < 400 nM for the first, > 800 nM for the second.

First: Cc1cccc(F)c1NC(=O)c1cc2c(s1)-c1ccccc1N(C(=O)c1ccc(-c3cn(S(C)(=O)=O)c4ncccc34)cc1)CC2 [Example 268]
Second: O=C(NC1CC1)c1cc2c(s1)-c1ccccc1N(C(=O)c1ccc(F)c(-c3ccnc(N4CCOCC4)c3)n1)CC2 [Example 71]
The EC50 of the first is higher: > 800 nM for the first, 400 to 800 nM for the second. The second is the more potent here.

`O=C(Nc1ncc2c(n1)-c1ccccc1N(C(=O)c1cccc(N3CCCOCC3)n1)CC2)C1CC1` [Example 111] and `O=C(NC1CC1)c1cc2c(s1)-c1ccccc1N(C(=O)c1cccc(N3CC4(CCOCC4)C3)n1)CC2` [Example 19] cannot be ordered by EC50: > 800 nM for the first, > 800 nM for the second.

`O=C(NC1CC1)c1cc2c(s1)-c1ccccc1N(C(=O)c1cc(N3CCOCC3)ccn1)CC2` [Example 48] and `O=C(NC1CC1)c1cc2c(s1)-c1ccccc1N(C(=O)c1cncc(N3CCOCC3)c1)CC2` [Example 47] cannot be ordered by EC50: > 800 nM for the first, > 800 nM for the second.

For `O=C(Nc1ccccc1)Nc1cc2c(s1)-c1ccccc1N(C(=O)c1cccc(N3CCOc4ccccc4C3)n1)CC2` [Example 311], the EC50 was > 800 nM.
